These are literature values, as cited in patent publication EP3842031A1, “NEW THERAPEUTIC INHALATION SYSTEM PROVIDING REDUCED DOSE OF FLUTICASONE PROPIONATE AND SALMETEROL XINAFOATE WITH IMPROVED EFFICACY AND SAFETY PROFILE” (PRZEDSIEBIORSTWO FARMACEUTYCZNE LEK-AM SP Z O. O., priority 2019, dated 2021).

The conditions of data set [1]: in vivo.
The conditions of data set [2]: compared with beclomethasone dipropionate, control of chronic asthma.

Turning to `CCC(=O)O[C@]1(C(=O)SCF)[C@H](C)C[C@H]2[C@@H]3C[C@H](F)C4=CC(=O)C=C[C@]4(C)[C@@]3(F)[C@@H](O)C[C@@]21C` [Fluticasone propionate], the oral bioavailability result in data set [1] is given as “less than 1%”. The potency entry in data set [2] is reported as “twice the potency of the beclomethasone dipropionate”.
